target: T1, NUPR1 (Homo sapiens, UniProt O60356); assay: Isothermal titration calorimetry (ITC) binding to NUPR1; conditions: 25 °C, pH 7.0
T1 construct: made in house
T1 sequence (O60356 1-82): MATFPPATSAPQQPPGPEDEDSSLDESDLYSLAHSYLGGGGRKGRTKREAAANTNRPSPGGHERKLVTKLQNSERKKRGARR
Experimental: The binding of the ZZW-115-derived compounds to NUPR1 was determined as described by using a high sensitivity isothermal titration calorimeter Auto-iTC200 (MicroCal, Malvern-Panalytical, Malvern, UK). Protein samples and solutions were properly degassed. Experiments were performed with freshly prepared protein solutions at 25 °C. A solution of NUPR1 (20 μM, in sodium phosphate 20 mM, pH 7.0, 2% DMSO) in the calorimetric cell was titrated with a solution of each compound (200 μM, in sodium phosphate 20 mM pH 7.0, 2% DMSO). The inhibitors were dissolved in the same buffer used for the protein. A standard protocol was employed: 19 titrant injections with 2 μL compound solution were programmed with a time spacing of 150 s, a stirring speed of 750 rpm, and a reference power of 10 μcal/s. The heat evolved after each ligand injection was calculated from the integral of the calorimetric signal. The heat due to the binding reaction was obtained as the difference between the reaction heat and the corresponding heat of injection, the latter estimated as a constant value throughout the experiment, and included as an adjustable parameter in the analysis. Control experiments (with the compounds injected into the buffer) were performed under the same experimental conditions.
The association constant (Ka), the enthalpy change (ΔH) and the stoichiometry (n) of the binding reaction were obtained through nonlinear regression analysis of experimental data to a model assuming a single ligand binding site for the protein. Experiments were performed in replicate and data were analyzed using in-house-developed software implemented in Origin 7 (OriginLab).
The interaction between ZZW-115-Derived compounds and NUPR1 was studied by using ITC, the gold-standard technique in binding-affinity determination, to test our theoretical prediction. […] From the thermogram (thermal power as a function of time), the binding isotherm (ligand-normalized heat as a function of the molar ratio) was obtained through integration of the individual heat effect associated with injection of each ligand solution (Figure 3). We used a nonlinear least-squares regression analysis employing a model that considered a single binding site in NUPR1 to estimate binding parameters such as the dissociation constant and the binding enthalpy.

Compared with FC(F)(F)c1ccc2c(c1)N(CCCN1CCN(CCN3CCCC3)CC1)c1ccccc1S2 [ZZW-130], FC(F)(F)c1ccc2c(c1)N(CCCN1CCN(CCN3CCCCC3)CC1)c1ccccc1S2 [ZZW-131] is lower in “N (stoichiometry)” value: 1.4 ± 0.1 for the first, 0.8 ± 0.1 for the second.

Compared with FC(F)(F)c1ccc2c(c1)N(CCCN1CCN(CCN3CCCC3)CC1)c1ccccc1S2 [ZZW-130], FC(F)(F)c1ccc2c(c1)N(CCCN1CCN(CCN3CCCCC3)CC1)c1ccccc1S2 [ZZW-131] is higher in ΔG: −7.9 ± 0.1 kcal mol^–1 for the first, −7.7 ± 0.1 kcal mol^–1 for the second.

FC(F)(F)c1ccc2c(c1)N(CCCN1CCN(CCN3CCCC3)CC1)c1ccccc1S2 [ZZW-130] and FC(F)(F)c1ccc2c(c1)N(CCCN1CCN(CCN3CCCCC3)CC1)c1ccccc1S2 [ZZW-131] are within error of each other in ΔH: 0.3 ± 0.3 kcal mol^–1 for the first, 0.5 ± 0.3 kcal mol^–1 for the second.

FC(F)(F)c1ccc2c(c1)N(CCCN1CCN(CCN3CCCC3)CC1)c1ccccc1S2 [ZZW-130] and FC(F)(F)c1ccc2c(c1)N(CCCN1CCN(CCN3CCCCC3)CC1)c1ccccc1S2 [ZZW-131] are the same in “−TΔS” value: −8.2 ± 0.3 kcal mol^–1 for the first, −8.2 ± 0.3 kcal mol^–1 for the second.

same assay, conditions: 25 °C, sodium phosphate 20 mM, pH 7.0, 2% DMSO

First: FC(F)(F)c1ccc2c(c1)N(CCCN1CCN(CCN3CCCC3)CC1)c1ccccc1S2 [ZZW-130]
Second: FC(F)(F)c1ccc2c(c1)N(CCCN1CCN(CCN3CCCCC3)CC1)c1ccccc1S2 [ZZW-131]
The Ka of the first is higher: 6.4 ± 0.4 M^–1 × 10^5 for the first, 4.7 ± 0.3 M^–1 × 10^5 for the second.

same assay, conditions: 25 °C, sodium phosphate 20 mM, pH 7.0, 2% DMSO, read-out: Kd (=1/Ka)

FC(F)(F)c1ccc2c(c1)N(CCCN1CCN(CCN3CCCC3)CC1)c1ccccc1S2 [ZZW-130] and FC(F)(F)c1ccc2c(c1)N(CCCN1CCN(CCN3CCCCC3)CC1)c1ccccc1S2 [ZZW-131] are within 1.5-fold of each other in Kd: 1.6 ± 0.1 µM for the first, 2.1 ± 0.1 µM for the second.

tested on: MiaPaCa-2 cells; assay: Cell viability assay (PrestoBlue); assay type: cell-based, human; conditions: Homo sapiens, MIA PaCa-2, 72 h, MiaPaCa-2, 72 h
Experimental: (§1) Cell viability was evaluated in ten pancreatic cancer cell lines, including MiaPaCa-2, and nine primary pancreatic cancer-derived cell lines: PDAC001T, PDAC012T, PDAC021T, PDAC081T, PDAC082T, PDAC087T, PDAC088T, PDAC089T, and PDAC115T. MiaPaCa-2 cells were obtained from ATCC (Manassas, VA, USA) and maintained in DMEM (Invitrogen, Cergy-Pontoise, France), supplemented with 10% […] at 37 °C with 5% CO2. The primary pancreatic cancer-derived cells were cultured in serum free ductal media (SFDM) following a procedure adapted from those previously described, without antibiotic, and incubated at 37 °C in a 5% CO2 incubator. Cells were plated in 96-well plates (5000 cells/well) overnight. Then, the media were supplemented with the compounds to be tested at 0–100 µM concentration, and the samples were incubated for another additional 72 h before performing the measurement. Cell viability was estimated after addition of PrestoBlue™ reagent (Life Technologies, Paris, France) for 3 h according to the PrestoBlue™ cell viability reagent protocol provided by the supplier. Cell viability was normalized when comparing to untreated cell rates. Experiments were performed in triplicate and each set was repeated three times, with similar results.

FC(F)(F)c1ccc2c(c1)N(CCCN1CCN(CCN3CCCC3)CC1)c1ccccc1S2 [ZZW-130] and FC(F)(F)c1ccc2c(c1)N(CCCN1CCN(CCN3CCCCC3)CC1)c1ccccc1S2 [ZZW-131] are within 1.5-fold of each other in IC50: 0.35 µM for the first, 0.3 µM for the second.

tested on: PDAC087T cells; assay: Cell viability assay (PrestoBlue); assay type: cell-based; conditions: Homo sapiens; PDAC087T (basal subtype), 72 h
From the text: (§2) Primary pancreatic cancer cells PDAC001T, PDAC012T, PDAC021T, PDAC081T, PDAC082T, PDAC087T, PDAC088T, PDAC089T, and PDAC115T were obtained from the PaCaOmics clinical trial registered at www.clinicaltrials.gov (accessed on 2 October 2021) with registration number NCT01692873. We included PDAC samples from both echoendoscopic ultrasound-guided fine-needle (EUS-FNA) biopsies for patients with unresectable tumors and from surgical specimens for patients undergoing surgery. The tumor samples of these patients were used to generate patient-derived xenograft in nude mice as previously reported. Xenografts obtained from mice were split into several small pieces and used for cell culture in a biosafety chamber: after fine mincing, they were treated with collagenase type V (ref C9263; Sigma-Aldrich, St. Louis, MO, USA) and trypsin/EDTA (ref 25200-056; Gibco, Life Technologies, Grand Island, NY, USA) and were suspended in Dulbecco’s modified Eagle’s medium supplemented with 1% w/w penicillin/streptomycin (Gibco, Life Technologies, Paisley, UK) and 10% fetal bovine serum (Lonza Inc., Walkersville, MD, USA). After centrifugation, cells were resuspended in serum-free ductal media adapted from Schreiber et al. at 37 °C in a 5% CO2 incubator. Amplified cells were stored in liquid nitrogen as previously reported. Cells were weaned from antibiotics for ≥48 h before testing.
as §1

FC(F)(F)c1ccc2c(c1)N(CCCN1CCN(CCN3CCCC3)CC1)c1ccccc1S2 [ZZW-130] and FC(F)(F)c1ccc2c(c1)N(CCCN1CCN(CCN3CCCCC3)CC1)c1ccccc1S2 [ZZW-131] are within 1.5-fold of each other in IC50: 4.95 µM for the first, 4.43 µM for the second.

tested on: PDAC081T cells; assay: Cell viability assay (PrestoBlue); assay type: cell-based; conditions: Homo sapiens; PDAC081T (classical subtype), 72 h
From the text: as §2, §1

FC(F)(F)c1ccc2c(c1)N(CCCN1CCN(CCN3CCCC3)CC1)c1ccccc1S2 [ZZW-130] and FC(F)(F)c1ccc2c(c1)N(CCCN1CCN(CCN3CCCCC3)CC1)c1ccccc1S2 [ZZW-131] are within 1.5-fold of each other in IC50: 1.12 µM for the first, 0.97 µM for the second.

tested on: PDAC088T cells; assay: Cell viability assay (PrestoBlue); assay type: cell-based; conditions: Homo sapiens; PDAC088T (classical subtype), 72 h
From the text: as §2, §1

FC(F)(F)c1ccc2c(c1)N(CCCN1CCN(CCN3CCCC3)CC1)c1ccccc1S2 [ZZW-130] and FC(F)(F)c1ccc2c(c1)N(CCCN1CCN(CCN3CCCCC3)CC1)c1ccccc1S2 [ZZW-131] are within 1.5-fold of each other in IC50: 6.75 µM for the first, 8.11 µM for the second.

tested on: PDAC115T cells; assay: Cell viability assay (PrestoBlue); assay type: cell-based; conditions: Homo sapiens; PDAC115T (basal subtype), 72 h
From the text: as §2, §1

Going from FC(F)(F)c1ccc2c(c1)N(CCCN1CCN(CCN3CCCC3)CC1)c1ccccc1S2 [ZZW-130] to FC(F)(F)c1ccc2c(c1)N(CCCN1CCN(CCN3CCCCC3)CC1)c1ccccc1S2 [ZZW-131], the IC50 rises from 2.91 µM to 5.75 µM (2-fold).

tested on: PDAC012T cells; assay: Cell viability assay (PrestoBlue); assay type: cell-based; conditions: Homo sapiens; PDAC012T (classical subtype), 72 h
From the text: as §2, §1

FC(F)(F)c1ccc2c(c1)N(CCCN1CCN(CCN3CCCC3)CC1)c1ccccc1S2 [ZZW-130] and FC(F)(F)c1ccc2c(c1)N(CCCN1CCN(CCN3CCCCC3)CC1)c1ccccc1S2 [ZZW-131] are within 1.5-fold of each other in IC50: 4.18 µM for the first, 5.25 µM for the second.

tested on: PDAC001T cells; assay: Cell viability assay (PrestoBlue); assay type: cell-based; conditions: Homo sapiens; PDAC001T (basal subtype), 72 h
From the text: as §2, §1

Going from FC(F)(F)c1ccc2c(c1)N(CCCN1CCN(CCN3CCCC3)CC1)c1ccccc1S2 [ZZW-130] to FC(F)(F)c1ccc2c(c1)N(CCCN1CCN(CCN3CCCCC3)CC1)c1ccccc1S2 [ZZW-131], the IC50 rises from 2.45 µM to 3.98 µM (1.6-fold).

tested on: PDAC021T cells; assay: Cell viability assay (PrestoBlue); assay type: cell-based; conditions: Homo sapiens; PDAC021T (basal subtype), 72 h
From the text: as §2, §1

Going from FC(F)(F)c1ccc2c(c1)N(CCCN1CCN(CCN3CCCC3)CC1)c1ccccc1S2 [ZZW-130] to FC(F)(F)c1ccc2c(c1)N(CCCN1CCN(CCN3CCCCC3)CC1)c1ccccc1S2 [ZZW-131], the IC50 rises from 3.81 µM to 6.47 µM (1.7-fold).

tested on: PDAC089T cells; assay: Cell viability assay (PrestoBlue); assay type: cell-based; conditions: Homo sapiens; PDAC089T (derived from a liver metastasis), 72 h
From the text: as §2, §1

Going from FC(F)(F)c1ccc2c(c1)N(CCCN1CCN(CCN3CCCC3)CC1)c1ccccc1S2 [ZZW-130] to FC(F)(F)c1ccc2c(c1)N(CCCN1CCN(CCN3CCCCC3)CC1)c1ccccc1S2 [ZZW-131], the IC50 rises from 6.03 µM to 10.6 µM (1.8-fold). The first is the more potent here.

tested on: PDAC082T cells; assay: Cell viability assay (PrestoBlue); assay type: cell-based; conditions: Homo sapiens; PDAC082T (classical subtype), 72 h
From the text: as §2, §1

FC(F)(F)c1ccc2c(c1)N(CCCN1CCN(CCN3CCCC3)CC1)c1ccccc1S2 [ZZW-130] and FC(F)(F)c1ccc2c(c1)N(CCCN1CCN(CCN3CCCCC3)CC1)c1ccccc1S2 [ZZW-131] are within 1.5-fold of each other in IC50: 4.33 µM for the first, 6.49 µM for the second.

Reference: PMC8533202, “Design of Inhibitors of the Intrinsically Disordered Protein NUPR1: Balance between Drug Affinity and Target Function” (Biomolecules, 2021)
